The nature of test [1]: Imiquimod induced psoriasis-like phenotype, adapted PASI score. It is filed as in vivo, C57BL/6J mice. To be noted: day 4 of imiquimod administration, AZ13711265 10 mg/kg intraperitoneally daily; for Erythema score (PASI) / Scaling score (PASI): scale 0-4. The method, then:
FIG. 5: 8 weeks old C57BL/6J mice were shaved two days before the experiment. One day before administration of imiquimod and daily for 5 days, mice were intraperitoneally injected with vehicle (60% PEG, 40% PBS) or with the Pak1 inhibitor AZ13711265 (10 mg/kg). Mice were treated in the back daily for 4 days either with Vaseline or with Aldara cream corresponding to 3,125 mg of imiquimod (IMQ) to induce psoriasis-like phenotype. The erythema and scaling was analyzed by an adapted version of the clinical PASI score, 0: none; 1: slight; 2: moderated; 3: strong; 4: very strong phenotype. The total score is the cumulative score of scaling and erythema. Results are expressed as mean±SEM. p-value: *<0.01, ***<0.001, compared to control
Futhermore, we investigated the effect of Pak1 kinase inhibitor on a psoriasis model. Dermal application of imiquimod induced a psoriasis-like phenotype including scaling and erythema that are scored using the PASI score.

The subject of test [2] is Caspase-1 activation. The test can be described thus: FAM-FLICA Caspase-1 activation assay by microscopy in BMDMs. The conditions noted are these: for Block of CNF1-triggered Caspase-1 activity/activation measured using FAM-FLICA: BMDMs, inhibitor 45 min before CNF1 500 ng/mL, 1 μM MCC950, 5 μM IPA-3, 1 μM FRAX597 (FIG. 1b, 2d). In kind it is cell-based, mouse.
Procedure: Bone-marrow derived macrophages (BMDMs) were extracted from femurs of 6-10 weeks-old BALB/c, C57BL/6J or C57BL/6J KO mice as indicated in the figure legends and were cultured in RPMI GlutaMax medium (Life Technologies) supplemented with 100 ng/mL M-CSF (Premium grade, Miltenyi Biotec), 10% heat-inactivated FBS (Biowest) and 50 μg/mL gentamycin (Life Technologies) at 37° C. in an atmosphere containing 5% CO2. The cells were seeded at a concentration of 10^6 cells per well in a 6-well plate. After 6 days of differentiation, BMDMs were used for experiments. NLRP3, NLRC4, PYRIN, and GSDMD knock-out BMDMs were a kind gift from M. Lamkanfi. […] SiRNAs were transfected in HEK 293T cells or BMDMs during 72 h using Lipofectamine RNAiMAX Reagent (ThermoFisher Scientific) according to the manufacturer instructions. Cells were transfected as indicated in figure legends with siRNAs targeting NLRP3 (L-053455-00, Dharmacon), Rac1 (L-041170-00, Dharmacon), Rac2 (L-041171-01, Dharmacon), Nek7 (J-063266-09, Dharmacon), PAK1 (L-048101-00, Dharmacon), PAK2 (L-040615-00, Dharmacon) or non-targeting control siRNA (D-001810-10, Dharmacon). […] Cells pre-treated with ultrapure LPS for 6 h followed by the addition of Nigericin 504 (Invivogen) or ATP 5 mM (Invivogen) for 30 minutes were used as positive control of NLRP3 inflammasome activation.
Caspase 1 activation was detected using the fluorescent probe FAM-FLICA (ImmunoChemistry Technologies) after 6 h of treatment, according to the manufacturer instructions. After labelling, cells were fixed in 4% paraformaldehyde for 15 min and blocked with 2% TBS-BSA. Cells were incubated with mouse anti-NLRP3 antibody (clone Cryo-2, Adipogen) for 1 hour followed by incubation with secondary antibody TexasRed anti-mouse IgG (TI-2000, Vector Laboratories) and Hoechst (Thermo Fisher Scientific) for 30 minutes. Cells were imaged using Nikon MR confocal microscope. […]
Primary bone marrow derived macrophages (BMDMs) were treated with CNF1 for 6 hours to trigger Caspase-1 activation. […] Cells with dots of FAM-FLICA staining were determined as positive (data not shown). […] To this aim, BMDMs were transfected with a siRNA library targeting mouse NLRs and Caspase-1 activation was monitored as previously described. […]
For test [3], the system named is IL-1β maturation. The test can be described thus: IL-1β maturation by immunoblot in BMDMs treated with LPS and CNF1. To be noted: 5 μM IPA-3 or 1 μM FRAX597 45 min before CNF1 500 ng/mL and LPS 100 ng/mL 8 h (FIG. 2c). It is filed as cell-based, mouse. The method, then:
(a-b) BMDMs isolated from BALB/c mice were transfected for 72 h with siRNA targeting either NLRP3, Nek7, Pak1, Pak2 as indicated and non-targeting siRNA were used as control. […] (c) Supernatants and cell lysates were analyzed by immunoblot. […] Active Caspase 1 was stained with FAM-FLICA, analyzed by microscopy and FAM-FLICA positive cells were counted. (n=1000 per conditions). p-value ****<0.0001, compared to the CNF1-treated BMDMs (e) HEK293T cells were transfected with plasmids encoding NLRP3 inflammasome component (myc-NLRP3, ASC-GFP, mCaspase-1) together with Flag-Rac2Q61E (Q61E), myc-Pak1 wild type (WT) or myc-Pak1T423E (T423E) and caspase-1 cleavage was analyzed by immunoblot.
HEK 293T cells were obtained from ATCC (CRL-3216) and maintained according to ATCC instructions. Bone-marrow derived macrophages (BMDMs) were extracted from femurs of 6-10 weeks-old BALB/c, C57BL/6J or C57BL/6J KO mice as indicated in the figure legends and were cultured in RPMI GlutaMax medium (Life Technologies) supplemented with 100 ng/mL M-CSF (Premium grade, Miltenyi Biotec), 10% heat-inactivated FBS (Biowest) and 50 μg/mL gentamycin (Life Technologies) at 37° C. in an atmosphere containing 5% CO2. The cells were seeded at a concentration of 10^6 cells per well in a 6-well plate. After 6 days of differentiation, BMDMs were used for experiments. […]

The subject of test [4] is E. coli expressing CNF1. The test can be described thus: Mouse model of bacteremia with E. coli expressing CNF1. It is filed as in vivo. To be noted: BALB/c mice, 48 h after infection.
Procedure: Data are expressed as the geometric mean±95 CI *p<0.05.
Mice were injected intravenously with 10^7 CFUs of E. coli as previously described^8. For the determination of bacteremia, blood was collected from the tail vein at the indicated times post-infection, serially diluted in sterile PBS and plated on LB plates containing streptomycin (200 μg/ml) and the plates were incubated for 16 h at 37° C. Injection quality was controlled by plating blood samples obtained from the mice at 5 min after injection. NLRP3 knock-out mice were kindly provided by V. Petrilli and have been previously described^21. Female NLRP3 KO and female congenic WT C57BL/6J littermate mice were injected intravenously with 10^7 CFUs of E. coli and the determination of bacteremia was monitored as previously described^8.
Mice were infected with the same strain and concentration of CNF1 expressing E. coli and the bacteremia was measured on each infected mouse at 0 h, 4 h, 24 h and 48 h.

Experimental findings from patent US20220220480A1, “METHODS AND COMPOSITIONS FOR TREATMENT OF NLRP3 IN[…] IL-1BETA DEPENDENT DISORDERS” (priority 2019, published 2022) are described below.

SMILES strings stand for the structures.

For `CCS(=O)(=O)c1cc(Nc2ncc(F)c(N(C)c3cc(CO)c(C)cc3C)n2)ccc1N1C[C@@H]2C[C@H]1CN2C` [AZ13711265], in test [1], the “Total PASI score (cumulative score of scaling and erythema)” value amounted to 3.1; the “Erythema score (PASI)” value came out at 1.4; the “Scaling score (PASI)” value worked out at 1.7.
Regarding `CCn1c(=O)c(-c2ccc(-c3cncs3)cc2Cl)cc2cnc(Nc3ccc(N4CCN(C)CC4)cc3)nc21` [FRAX597], the “Block of CNF1-triggered Caspase-1 activity/activation measured using FAM-FLICA” value in test [2] is “sufficient to block”. Besides, in test [3], the “Block of IL-1β maturation in macrophages treated with LPS and CNF1” value is given as “sufficient to block”.
As to `Oc1ccc2ccccc2c1SSc1c(O)ccc2ccccc12` [IPA-3], the “Block of CNF1-triggered Caspase-1 activity/activation measured using FAM-FLICA” value in test [2] is “sufficient to block”. Besides, the “Block of IL-1β maturation in macrophages treated with LPS and CNF1” value in test [3] was “sufficient to block”.
With `CC(C)(O)c1coc(S(=O)(=O)NC(=O)Nc2c3c(cc4c2CCC4)CCC3)c1` [MCC950], the “Block of CNF1-triggered Caspase-1 activity/activation measured using FAM-FLICA” value in test [2] is recorded as “sufficient to block”. Also, the “Animals found positive for bacteria” value in test [4] (MCC950 50 mg/kg IP once a day, control group 0) is on record as 56%. Besides, the “Bacterial load compared to control group” value in test [4] (MCC950 50 mg/kg IP) was “statistically significant higher”.
Turning to `CO[C@@H]1C[C@@H](C[C@H]2CC[C@H](C)[C@H]([C@@H](C)C(=O)O)O2)O[C@]2(O[C@](C)([C@H]3CC[C@@](C)([C@@H]4O[C@@H]([C@H]5O[C@@](O)(CO)[C@H](C)C[C@@H]5C)C[C@@H]4C)O3)C[C@H]2C)[C@@H]1C` [Nigericin], the “FAM-FLICA positive cells (mean)” value in test [2] (WT BMDMs (FIG. 1b), control condition 2.5%) is reported as 15.4%.
Consider `CC(C)Cn1cnc2c(N)nc3ccccc3c21` [imiquimod], for which, in test [1], the “Total PASI score (cumulative score of scaling and erythema)” value was 6.5; the “Erythema score (PASI)” value turned out to be 3; the “Scaling score (PASI)” value is listed as 3.5.
